Measurements published in patent publication US7553505B2, “Health care product containing isoflavone aglycones and method of producing the same” (The Hong Kong University of Science and Technology, priority 2006, dated 2009).

Assays:
[1] = Solubility in alcohol against temperature (FIG. 2); assay type: physicochemical; conditions: within the specific temperature range of FIG. 2
Text: FIG. 2 is a diagram showing the solubilities of genistein and daidzein in methanol against temperature.
The first step of the method as described above is extraction. This process of grinding starting materials disrupts their tissue structure to enable the isoflavone fractions more easily extracted by the organic solvent. Then, an organic solvent, preferably ethanol, is used to recover isoflavones based on the high solubilities and steadiness of isoflavones in the selected solvents. […] Ethanol (edible alcohol) is preferred in this invention to ensure the isoflavone product will not endanger human health even with the remains of solvent. The extraction is carried out at a temperature ranging from 40 to 90° C. for 2-24 hrs, with the material ratio (volume:weight) of solvent to flour between 1:1 and 10:1 (mL:g).

[2] = Mitchell et al., 1998; Setchell et al., 2003; cited from earlier work

O=c1c(-c2ccc(O)cc2)coc2cc(O)cc(O)c12 [genistein, Genistein]
solubility in alcohol including methanol and ethanol versus temperature [1]: increase evidently with increasing temperature
biological activities among the twelve soy isoflavones [2]: highest biological activities
